Data reported in patent US8829007B2 (priority 2009, dated 2014).
Where two headings read alike, the source gives them in different places.

Key:
[1] = test system: influenza A virus (A/PR/8/34); test: microbe, parasite or virus in culture; format: cell-based; details: Influenza A virus, PR/8, MDCK
[2] = test system: A/PR/8/34 influenza virus; test: microbe, parasite or virus in culture; format: cell-based; details: Influenza A virus, PR/8, MDCK
[3] = MDCK cells infected with A/PR/8/34, cell protection (CPE), read-out: IC50 (mean all)
[4] = MDCK cells infected with A/PR/8/34, bDNA viral RNA, read-out: EC50 (mean all)
[5] = mean all, A/PR/8/34 infected MDCK cells, CPE assay, read-out: IC50
[6] = mean all, A/PR/8/34 influenza virus in MDCK cells, bDNA assay, read-out: EC50

Q: Which IC50 [1, 3] does the source give for `C=CCCC(=O)N1CCCC[C@@H]1CNc1nc(-c2c[nH]c3ncc(Cl)cc23)ncc1F` [Compound 279, (R)-1-(2-((2-(5-chloro-1H-pyrrolo[2,3-b]pyridin-3-yl)-5-fluoropyrimidin-4-ylamino)methyl)piperidin-1-yl)pent-4-en-1-one] here?
A: < 5 µM

Q: What about the EC50 [2, 4] of the same molecule?
A: < 5 µM

Q: `O=C(CC(F)(F)F)N1CCCC[C@@H]1CNc1nc(-c2c[nH]c3ncc(Cl)cc23)ncc1F` [Compound 280, (R)-1-(2-((2-(5-chloro-1H-pyrrolo[2,3-b]pyridin-3-yl)-5-fluoropyrimidin-4-ylamino)methyl)piperidin-1-yl)-3,3,3-trifluoropropan-1-one] was tested. Which IC50 [1, 3] did it give?
A: < 5 µM

Q: What about the EC50 [2, 4] of the same molecule?
A: < 5 µM

Q: Which results are given for `C#CCCCC(=O)N1CCCC[C@@H]1CNc1nc(-c2c[nH]c3ncc(Cl)cc23)ncc1F` [Compound 281, (R)-1-(2-((2-(5-chloro-1H-pyrrolo[2,3-b]pyridin-3-yl)-5-fluoropyrimidin-4-ylamino)methyl)piperidin-1-yl)hex-5-yn-1-one]?
A: IC50 [1, 3]: < 5 µM; EC50 [2, 4]: < 5 µM

Q: Which results are given for `O=C(CCc1ccccc1)N1CCCC[C@@H]1CNc1nc(-c2c[nH]c3ncc(Cl)cc23)ncc1F` [Compound 293, (R)-1-(2-((2-(5-chloro-1H-pyrrolo[2,3-b]pyridin-3-yl)-5-fluoropyrimidin-4-ylamino)methyl)piperidin-1-yl)-3-phenylpropan-1-one]?
A: IC50 [1, 3]: < 5 µM; EC50 [2, 4]: < 5 µM

Q: For `CCCC(=O)N1CCCC[C@@H]1CNc1nc(-c2c[nH]c3ncc(Cl)cc23)ncc1F` [Compound 295, (R)-1-(2-((2-(5-chloro-1H-pyrrolo[2,3-b]pyridin-3-yl)-5-fluoropyrimidin-4-ylamino)methyl)piperidin-1-yl)butan-1-one], which IC50 [1, 3] is on record?
A: < 5 µM

Q: What about the EC50 [2, 4] of the same molecule?
A: < 5 µM

Q: With `CCCS(=O)(=O)N1CCC[C@H](Nc2nc(-c3c[nH]c4ncc(Cl)cc34)ncc2F)C1` [Compound 306, (S)-2-(5-chloro-1H-pyrrolo[2,3-b]pyridin-3-yl)-5-fluoro-N-(1-(propylsulfonyl)-piperidin-3-yl)pyrimidin-4-amine] as the molecule, how does the IC50 [1, 5] read?
A: < 5 µM

Q: What about the EC50 [2, 6] of the same molecule?
A: < 5 µM

Q: Which results are given for `CCCS(=O)(=O)N1CCC[C@@H](Nc2nc(-c3c[nH]c4ncc(Cl)cc34)ncc2F)C1` [Compound 316, (R)-2-(5-chloro-1H-pyrrolo[2,3-b]pyridin-3-yl)-5-fluoro-N-(1-(propylsulfonyl)piperidin-3-yl)pyrimidin-4-amine]?
A: IC50 [1, 5]: 5 to 20 µM; EC50 [2, 6]: < 5 µM

Q: Which results are given for `O=C(C1CC1)N1CCC[C@@H](Nc2nc(-c3c[nH]c4ncc(Cl)cc34)ncc2F)C1` [Compound 317]?
A: IC50 [1, 5]: 5 to 20 µM; EC50 [2, 6]: < 5 µM

Q: What does the source list for `CC(C)CC(=O)N1CCC[C@@H](Nc2nc(-c3c[nH]c4ncc(Cl)cc34)ncc2F)C1` [Compound 318]?
A: IC50 [1, 5]: > 20 µM; EC50 [2, 6]: < 5 µM

Q: Which results are given for `O=C(C1CCC1)N1CCC[C@@H](Nc2nc(-c3c[nH]c4ncc(Cl)cc34)ncc2F)C1` [Compound 319]?
A: IC50 [1, 5]: > 20 µM; EC50 [2, 6]: < 5 µM

Q: For `COCCC(=O)N1CCC[C@@H](Nc2nc(-c3c[nH]c4ncc(Cl)cc34)ncc2F)C1` [Compound 320], which IC50 [1, 5] is on record?
A: 5 to 20 µM

Q: And the EC50 [2, 6]?
A: 5 to 10 µM

Q: Which results are given for `CCS(=O)(=O)N1CCC[C@@H](Nc2nc(-c3c[nH]c4ncc(Cl)cc34)ncc2F)C1` [Compound 321, (R)-2-(5-chloro-1H-pyrrolo[2,3-b]pyridin-3-yl)-N-(1-(ethylsulfonyl)piperidin-3-yl)-5-fluoropyrimidin-4-amine]?
A: IC50 [1, 5]: 5 to 20 µM; EC50 [2, 6]: < 5 µM

Q: Which results are given for `CC(C)S(=O)(=O)N1CCC[C@@H](Nc2nc(-c3c[nH]c4ncc(Cl)cc34)ncc2F)C1` [Compound 322, (R)-2-(5-chloro-1H-pyrrolo[2,3-b]pyridin-3-yl)-5-fluoro-N-(1-(isopropylsulfonyl)-piperidin-3-yl)pyrimidin-4-amine]?
A: IC50 [1, 5]: > 20 µM; EC50 [2, 6]: < 5 µM

Q: Which results are given for `CCCCNC(=O)N1CCC[C@H](Nc2nc(-c3c[nH]c4ncc(Cl)cc34)ncc2F)C1` [Compound 323]?
A: IC50 [1, 5]: > 20 µM; EC50 [2, 6]: < 5 µM

Q: Which IC50 [1, 5] does the source give for `CCCNC(=O)N1CCC[C@H](Nc2nc(-c3c[nH]c4ncc(Cl)cc34)ncc2F)C1` [Compound 324] here?
A: 5 to 20 µM

Q: And the EC50 [2, 6]?
A: < 5 µM

Q: `O=C(C1CC1)N1CCC[C@H](CNc2nc(-c3c[nH]c4ncc(Cl)cc34)ncc2F)C1` [Compound 325, (R)-(3-((2-(5-chloro-1H-pyrrolo[2,3-b]pyridin-3-yl)-5-fluoropyrimidin-4-ylamino)methyl)piperidin-1-yl)(cyclopropyl)methanone] was tested. Which IC50 [1, 5] did it give?
A: 5 to 20 µM

Q: What about the EC50 [2, 6] of the same molecule?
A: < 5 µM

Q: How did the IC50 [1, 5] turn out when `CCCCC(=O)N1CCCC[C@@H]1CNc1nc(-c2c[nH]c3ncc(Cl)cc23)ncc1F` [Compound 326, (R)-1-(2-((2-(5-chloro-1H-pyrrolo[2,3-b]pyridin-3-yl)-5-fluoropyrimidin-4-ylamino)methyl)piperidin-1-yl)pentan-1-one] was run?
A: 5 to 20 µM

Q: And the EC50 [2, 6]?
A: < 5 µM

Q: How did the IC50 [1, 5] turn out when `COCCC(=O)N1CCC[C@H](CNc2nc(-c3c[nH]c4ncc(Cl)cc34)ncc2F)C1` [Compound 327, (R)-1-(3-((2-(5-chloro-1H-pyrrolo[2,3-b]pyridin-3-yl)-5-fluoropyrimidin-4-ylamino)methyl)piperidin-1-yl)-3-methoxypropan-1-one] was run?
A: < 5 µM

Q: What about the EC50 [2, 6] of the same molecule?
A: < 5 µM

Q: With `O=S(=O)(CCCCl)N1CCCC[C@@H]1CNc1nc(-c2c[nH]c3ncc(Cl)cc23)ncc1F` [Compound 330, (R)-2-(5-chloro-1H-pyrrolo[2,3-b]pyridin-3-yl)-N-((1-(3-chloropropylsulfonyl)piperidin-2-yl)methyl)-5-fluoropyrimidin-4-amine] as the molecule, how does the IC50 [1, 5] read?
A: < 5 µM

Q: And the EC50 [2, 6]?
A: < 5 µM

Q: `CC(C)CC(=O)N1CCC[C@H](Nc2nc(-c3c[nH]c4ncc(Cl)cc34)ncc2F)C1` [Compound 332] was tested. Which IC50 [1, 5] did it give?
A: < 5 µM

Q: What about the EC50 [2, 6] of the same molecule?
A: < 5 µM

Q: For `CCNC(=O)N1CCCC[C@@H]1CNc1nc(-c2c[nH]c3ncccc23)ncc1F` [Compound 373, (R)—N-ethyl-2-((5-fluoro-2-(1H-pyrrolo[2,3-b]pyridin-3-yl)pyrimidin-4-ylamino)-methyl)piperidine-1-carboxamide], which IC50 [1, 5] is on record?
A: 5 to 20 µM

Q: And the EC50 [2, 6]?
A: > 10 µM

Q: How did the IC50 [1, 5] turn out when `CCCNC(=O)N1CCCC[C@@H]1CNc1nc(-c2c[nH]c3ncccc23)ncc1F` [Compound 375, (R)-2-((5-fluoro-2-(1H-pyrrolo[2,3-b]pyridin-3-yl)pyrimidin-4-ylamino)methyl)-N-propylpiperidine-1-carboxamide] was run?
A: 5 to 20 µM

Q: What about the EC50 [2, 6] of the same molecule?
A: 5 to 10 µM

Q: Which IC50 [1, 5] does the source give for `CN1CCC(Nc2nc(-c3c[nH]c4ncc(Cl)cc34)ncc2F)C1=O` (stereo not shown) [Compound 379] here?
A: 5 to 20 µM

Q: And the EC50 [2, 6]?
A: < 5 µM

Q: Which IC50 [1, 5] does the source give for `CS(=O)(=O)N1CCCC[C@@H]1CNc1nc(-c2c[nH]c3ncc(Cl)cc23)ncc1F` [Compound 381, (R)-2-(5-chloro-1H-pyrrolo[2,3-b]pyridin-3-yl)-5-fluoro-N-((1-(methylsulfonyl)-piperidin-2-yl)methyl)pyrimidin-4-amine] here?
A: < 5 µM

Q: And the EC50 [2, 6]?
A: < 5 µM

Q: Which IC50 [1, 5] does the source give for `CCS(=O)(=O)N1CCCC[C@@H]1CNc1nc(-c2c[nH]c3ncc(Cl)cc23)ncc1F` [Compound 382, (R)-2-(5-chloro-1H-pyrrolo[2,3-b]pyridin-3-yl)-5-fluoro-N-((1-(ethylsulfonyl)-piperidin-2-yl)methyl)pyrimidin-4-amine] here?
A: < 5 µM

Q: What about the EC50 [2, 6] of the same molecule?
A: < 5 µM

Q: What does the source list for `O=S(=O)(CC(F)(F)F)N1CCCC[C@@H]1CNc1nc(-c2c[nH]c3ncc(Cl)cc23)ncc1F` [Compound 383, (R)-2-(5-chloro-1H-pyrrolo[2,3-b]pyridin-3-yl)-5-fluoro-N-((1-(2,2,2-trifluoro-ethylsulfonyl)-piperidin-2-yl)methyl)pyrimidin-4-amine]?
A: IC50 [1, 5]: < 5 µM; EC50 [2, 6]: < 5 µM

Q: Which IC50 [1, 5] does the source give for `CS(=O)(=O)N1CCC[C@H](Nc2nc(-c3c[nH]c4ncc(Cl)cc34)ncc2F)C1` [Compound 389, (S)-2-(5-chloro-1H-pyrrolo[2,3-b]pyridin-3-yl)-5-fluoro-N-(1-(methylsulfonyl)piperidin-3-yl)pyrimidin-4-amine] here?
A: < 5 µM

Q: What about the EC50 [2, 6] of the same molecule?
A: < 5 µM

Q: With `CCCCS(=O)(=O)N1CCC[C@H](Nc2nc(-c3c[nH]c4ncc(Cl)cc34)ncc2F)C1` [Compound 390, (S)—N-(1-(butylsulfonyl)piperidin-3-yl)-2-(5-chloro-1H-pyrrolo[2,3-b]pyridin-3-yl)-5-fluoropyrimidin-4-amine] as the molecule, how does the IC50 [1, 5] read?
A: < 5 µM

Q: And the EC50 [2, 6]?
A: < 5 µM

Q: With `O=S(=O)(C1CC1)N1CCC[C@H](Nc2nc(-c3c[nH]c4ncc(Cl)cc34)ncc2F)C1` [Compound 391, (S)-2-(5-chloro-1H-pyrrolo[2,3-b]pyridin-3-yl)-N-(1-(cyclopropylsulfonyl)piperidin-3-yl)-5-fluoropyrimidin-4-amine] as the molecule, how does the IC50 [1, 5] read?
A: < 5 µM

Q: What about the EC50 [2, 6] of the same molecule?
A: < 5 µM

Q: How did the IC50 [1, 5] turn out when `O=S(=O)(CC1CCCC1)N1CCC[C@H](Nc2nc(-c3c[nH]c4ncc(Cl)cc34)ncc2F)C1` [Compound 392, (S)-2-(5-chloro-1H-pyrrolo[2,3-b]pyridin-3-yl)-N-(1-(cyclopentylmethylsulfonyl)piperidin-3-yl)-5-fluoropyrimidin-4-amine] was run?
A: < 5 µM

Q: And the EC50 [2, 6]?
A: < 5 µM

Q: Which results are given for `CCS(=O)(=O)N1CCC[C@H](Nc2nc(-c3c[nH]c4ncc(Cl)cc34)ncc2F)C1` [Compound 393, (S)-2-(5-chloro-1H-pyrrolo[2,3-b]pyridin-3-yl)-N-(1-(ethylsulfonyl)piperidin-3-yl)-5-fluoropyrimidin-4-amine]?
A: IC50 [1, 5]: < 5 µM; EC50 [2, 6]: < 5 µM

Q: `CC(C)S(=O)(=O)N1CCC[C@H](Nc2nc(-c3c[nH]c4ncc(Cl)cc34)ncc2F)C1` [Compound 394, (S)-2-(5-chloro-1H-pyrrolo[2,3-b]pyridin-3-yl)-5-fluoro-N-(1-(isopropylsulfonyl)-piperidin-3-yl)pyrimidin-4-amine] was tested. Which IC50 [1, 5] did it give?
A: < 5 µM

Q: And the EC50 [2, 6]?
A: < 5 µM

Q: With `O=C(C1CCC1)N1CCC[C@H](Nc2nc(-c3c[nH]c4ncc(Cl)cc34)ncc2F)C1` [Compound 395] as the molecule, how does the IC50 [1, 5] read?
A: < 5 µM

Q: And the EC50 [2, 6]?
A: < 5 µM

Q: `COCCC(=O)N1CCC[C@H](Nc2nc(-c3c[nH]c4ncc(Cl)cc34)ncc2F)C1` [Compound 396] was tested. Which IC50 [1, 5] did it give?
A: < 5 µM

Q: What about the EC50 [2, 6] of the same molecule?
A: < 5 µM

Q: How did the IC50 [1, 5] turn out when `CN1CCC[C@H](Nc2nc(-c3c[nH]c4ncc(Cl)cc34)ncc2F)C1=O` [Compound 397] was run?
A: < 5 µM

Q: What about the EC50 [2, 6] of the same molecule?
A: < 5 µM
